Laboratory results from PubChem BioAssay AID330 (DTP/NCI, 2004).
Values joined by “and” are separate entries in the source; they are usually repeats but may differ in a detail not shown here. Equal values may be shown once. Toxic doses and inconclusive results are not listed.

Tested on: P388 leukemia ip, CD2F1 mice, survival T/C
Test: NCI In Vivo Anticancer Drug Screen. Data for tumor model P388 Leukemia (intraperitoneal) in CD2F1 (CDF1) mice
Conditions: endpoint: median survival time, higher = longer survival
Method in brief: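 Mice carrying the transplanted tumor received test compound or vehicle. Survival was recorded in each group, and the value is the treated-group measurement divided by that of the vehicle-treated control group.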

[1] = dose: 50.0 mg/kg/injection, schedule: Q01DX009 (ip), vehicle: saline
[2] = dose: 100.0 mg/kg/injection, schedule: Q01DX009 (ip), vehicle: saline
[3] = dose: 200.0 mg/kg/injection, schedule: Q01DX009 (ip), vehicle: saline
[4] = dose: 25.0 mg/kg/injection, schedule: Q01DX009 (ip), vehicle: other
[5] = dose: 50.0 mg/kg/injection, schedule: Q01DX009 (ip), vehicle: other
[6] = dose: 100.0 mg/kg/injection, schedule: Q01DX009 (ip), vehicle: other
[7] = dose: 200.0 mg/kg/injection, schedule: Q01DX009 (ip), vehicle: other
[8] = dose: 100.0 mg/kg/injection, schedule: Q04DX002 (ip), vehicle: saline with Tween-80
[9] = dose: 200.0 mg/kg/injection, schedule: Q04DX002 (ip), vehicle: saline with Tween-80
[10] = dose: 400.0 mg/kg/injection, schedule: Q04DX002 (ip), vehicle: saline with Tween-80
[11] = dose: 50.0 mg/kg/injection, schedule: Q01DX005 (ip), vehicle: Klucel (hydroxypropylcellulose) (HPC)
[12] = dose: 100.0 mg/kg/injection, schedule: Q01DX005 (ip), vehicle: Klucel (hydroxypropylcellulose) (HPC)
[13] = dose: 200.0 mg/kg/injection, schedule: Q01DX005 (ip), vehicle: Klucel (hydroxypropylcellulose) (HPC)

CC1(CSc2ccc3ccccc3c2)CC(=O)N1 (stereo not drawn)
T/C (dose: 100.0 mg/kg/injection, schedule: Q01DX001 (ip), vehicle: suspension in saline): 99 % of control | T/C (dose: 200.0 mg/kg/injection, schedule: Q01DX001 (ip), vehicle: suspension in saline): 99 % of control | T/C (dose: 400.0 mg/kg/injection, schedule: Q01DX001 (ip), vehicle: suspension in saline): 98 % of control

BrCc1ccc2c(c1)CCC2
T/C (dose: 50.0 mg/kg/injection, schedule: Q01DX009 (ip), vehicle: distilled water + alcohol): 106 % of control | T/C (dose: 100.0 mg/kg/injection, schedule: Q01DX009 (ip), vehicle: distilled water + alcohol): 113 % of control | T/C (dose: 200.0 mg/kg/injection, schedule: Q01DX009 (ip), vehicle: distilled water + alcohol): 97 % of control

C[n+]1ccccc1C(=O)O
T/C (dose: 25.0 mg/kg/injection, schedule: Q01DX009 (ip), vehicle: saline): 102 % of control | T/C [1]: 98 % of control | T/C [2]: 103 % of control | T/C [3]: 92 % of control

CCOc1ccccc1N=Nc1c(C)nn(C(=S)SC)c1OCC
T/C (dose: 30.0 mg/kg/injection, schedule: Q01DX005 (ip), vehicle: Klucel + Tween-80): 91 % of control | T/C (dose: 60.0 mg/kg/injection, schedule: Q01DX005 (ip), vehicle: Klucel + Tween-80): 88 % of control and 95 % of control | T/C (dose: 120.0 mg/kg/injection, schedule: Q01DX005 (ip), vehicle: Klucel + Tween-80): 86 % of control

N#Cc1c(-c2ccc(F)cc2)c(-c2ccc(F)cc2)nn(CCO)c1=O
T/C (dose: 12.5 mg/kg/injection, schedule: Q04DX002 (ip), vehicle: distilled water + Tween-80): 98 % of control | T/C (dose: 25.0 mg/kg/injection, schedule: Q04DX002 (ip), vehicle: distilled water + Tween-80): 101 % of control and 108 % of control and 112 % of control | T/C (dose: 50.0 mg/kg/injection, schedule: Q01DX005 (ip), vehicle: distilled water + Tween-80): 117 % of control | T/C (dose: 100.0 mg/kg/injection, schedule: Q04DX002 (ip), vehicle: distilled water + Tween-80): 121 % of control and 166 % of control and 201 % of control | T/C (dose: 200.0 mg/kg/injection, schedule: Q01DX005 (ip), vehicle: distilled water + Tween-80): 155 % of control | T/C (dose: 200.0 mg/kg/injection, schedule: Q04DX002 (ip), vehicle: distilled water + Tween-80): 150 % of control | T/C (dose: 400.0 mg/kg/injection, schedule: Q01DX005 (ip), vehicle: distilled water + Tween-80): 238 % of control

COc1ccc(C(=O)OC2(C)CC(C)(C)N=[N+]2[O-])cc1 (stereo not drawn)
T/C (dose: 12.5 mg/kg/injection, schedule: Q01DX009 (ip), vehicle: other): 108 % of control | T/C [4]: 113 % of control | T/C [5]: 115 % of control | T/C (dose: 66.0 mg/kg/injection, schedule: Q01DX009 (ip), vehicle: other): 102 % of control | T/C [6]: 100 % of control | T/C (dose: 150.0 mg/kg/injection, schedule: Q01DX009 (ip), vehicle: other): 92 % of control | T/C [7]: 113 % of control

C/C(=N\Nc1ccc([N+](=O)[O-])cc1[N+](=O)[O-])c1ccc(C)cc1
T/C (dose: 50.0 mg/kg/injection, schedule: Q01DX001 (ip), vehicle: Klucel (hydroxypropylcellulose) (HPC)): 105 % of control | T/C (dose: 100.0 mg/kg/injection, schedule: Q01DX001 (ip), vehicle: Klucel (hydroxypropylcellulose) (HPC)): 107 % of control | T/C (dose: 200.0 mg/kg/injection, schedule: Q01DX001 (ip), vehicle: Klucel (hydroxypropylcellulose) (HPC)): 95 % of control | T/C (dose: 400.0 mg/kg/injection, schedule: Q01DX001 (ip), vehicle: Klucel (hydroxypropylcellulose) (HPC)): 91 % of control

CN1C(=O)/C(=[N+](/[O-])c2ccccc2-c2ccccc2)c2ccccc21
T/C [8]: 99 % of control | T/C [9]: 100 % of control | T/C [10]: 97 % of control

COc1cccc2c1C(=O)c1c(O)c3c(c(O)c1C2=O)CC(O)(C(C)=O)CC3OC1CC(N=CN(C)C)C(O)C(C)O1 (stereo not drawn)
T/C (dose: 3.13 mg/kg/injection, schedule: Q04DX003 (ip), vehicle: distilled water + Tween-80): 103 % of control | T/C (dose: 6.25 mg/kg/injection, schedule: Q04DX003 (ip), vehicle: distilled water + Tween-80): 110 % of control | T/C (dose: 12.5 mg/kg/injection, schedule: Q04DX003 (ip), vehicle: distilled water + Tween-80): 99 % of control and 119 % of control | T/C (dose: 50.0 mg/kg/injection, schedule: Q04DX003 (ip), vehicle: distilled water + Tween-80): 123 % of control

CCn1c(-c2ccccc2)nc(=S)c(C(=O)c2ccccc2)c1SC
T/C (dose: 100.0 mg/kg/injection, schedule: Q04DX003 (ip), vehicle: Klucel (hydroxypropylcellulose) (HPC)): 98 % of control | T/C (dose: 200.0 mg/kg/injection, schedule: Q04DX003 (ip), vehicle: Klucel (hydroxypropylcellulose) (HPC)): 100 % of control | T/C (dose: 400.0 mg/kg/injection, schedule: Q04DX003 (ip), vehicle: Klucel (hydroxypropylcellulose) (HPC)): 100 % of control

CCCCCCCSc1nc2ccc(N=Cc3ccccc3O)cc2s1
T/C (dose: 50.0 mg/kg/injection, schedule: Q01DX009 (ip), vehicle: Klucel (hydroxypropylcellulose) (HPC)): 93 % of control | T/C (dose: 100.0 mg/kg/injection, schedule: Q01DX009 (ip), vehicle: Klucel (hydroxypropylcellulose) (HPC)): 103 % of control | T/C (dose: 200.0 mg/kg/injection, schedule: Q01DX009 (ip), vehicle: Klucel (hydroxypropylcellulose) (HPC)): 103 % of control

CC(C)SC(=S)Nc1ccc(Cl)c(C(F)(F)F)c1
T/C [1]: 106 % of control | T/C [2]: 105 % of control | T/C [3]: 110 % of control

O=S(=O)(O/C(=C(\OS(=O)(=O)C(F)(F)F)c1ccccc1)c1ccccc1)C(F)(F)F
T/C [11]: 97 % of control | T/C [12]: 98 % of control | T/C [13]: 91 % of control

Cc1cc2c(cc1C)C(=O)c1c(O)c3c(c(O)c1C2=O)C[C@@](O)(C(=O)CO)C[C@@H]3OC1CC(N)C(O)C(C)O1 (stereo partly drawn)
T/C (dose: 0.39 mg/kg/injection, schedule: Q04DX003 (ip), vehicle: water): 115 % of control | T/C (dose: 0.78 mg/kg/injection, schedule: Q04DX003 (ip), vehicle: water): 115 % of control | T/C (dose: 1.56 mg/kg/injection, schedule: Q04DX003 (ip), vehicle: water): 110 % of control | T/C (dose: 3.13 mg/kg/injection, schedule: Q04DX003 (ip), vehicle: water): 151 % of control and 157 % of control | T/C (dose: 6.25 mg/kg/injection, schedule: Q04DX003 (ip), vehicle: water): 190 % of control | T/C (dose: 25.0 mg/kg/injection, schedule: Q04DX003 (ip), vehicle: water): 100 % of control

CCCCC(CC)C(=O)OC(C)C(=O)N(CCCC)CCCC (stereo not drawn)
T/C (dose: 25.0 mg/kg/injection, schedule: Q01DX005 (ip), vehicle: Klucel (hydroxypropylcellulose) (HPC)): 105 % of control | T/C [11]: 103 % of control | T/C [12]: 105 % of control | T/C [13]: 95 % of control

COc1cc(Br)c(CC(NC(=O)c2ccccc2)c2ccc(OC)c(OC)c2OC)cc1OC (stereo not drawn)
T/C (dose: 200.0 mg/kg/injection, schedule: Q01DX005 (ip), vehicle: saline with Tween-80): 91 % of control

O=[N+]([O-])c1cc2c(cc1C1OCCO1)OCO2
T/C [4]: 102 % of control | T/C [5]: 100 % of control | T/C [6]: 100 % of control | T/C [7]: 98 % of control | T/C (dose: 400.0 mg/kg/injection, schedule: Q01DX009 (ip), vehicle: other): 98 % of control

CC(=O)C(C(C)=O)[N+](=O)[O-].CC(=O)C(C(C)=O)[N+](=O)[O-].[Cu]
T/C (dose: 6.25 mg/kg/injection, schedule: Q01DX005 (ip), vehicle: saline with Tween-80): 100 % of control | T/C (dose: 12.5 mg/kg/injection, schedule: Q01DX005 (ip), vehicle: saline with Tween-80): 105 % of control

COc1cc2c(cc1OC)C(c1c(Cl)cccc1Cl)=NCC2
T/C [11]: 96 % of control | T/C [12]: 105 % of control | T/C [13]: 110 % of control

O=C1c2ccccc2C(=O)C1(Br)c1ccc(Cl)cc1
T/C [8]: 96 % of control | T/C [9]: 101 % of control | T/C [10]: 99 % of control

CCN(CC)C(=O)c1ccc(C)c2c1Nc1c(c(C)c3oc(=O)c(C)nc3c1C(=O)N(CC)CC)O2
T/C (dose: 7.5 mg/kg/injection, schedule: Q01DX005 (ip), vehicle: Klucel (hydroxypropylcellulose) (HPC)): 97 % of control | T/C (dose: 15.0 mg/kg/injection, schedule: Q01DX005 (ip), vehicle: Klucel (hydroxypropylcellulose) (HPC)): 90 % of control | T/C (dose: 120.0 mg/kg/injection, schedule: Q01DX005 (ip), vehicle: Klucel (hydroxypropylcellulose) (HPC)): 88 % of control | T/C (dose: 240.0 mg/kg/injection, schedule: Q01DX005 (ip), vehicle: Klucel (hydroxypropylcellulose) (HPC)): 92 % of control
